Reference: US20240243327A1, “NAPHTHALENE DIIMIDE COMPOUND AND REDOX FLOW BATTERY CONTAINING THE SAME” (Korea Advanced Institute of Science and Technology, priority 2023, published 2024)
Read-outs that look alike come from different tables or passages of the source. Blank lines part the entries; values can stand above or below the compound they belong to.

Assay: Analysis of solubility (UV-Vis calibration at 361 nm, saturated solution at room temperature)
Format: physicochemical
Settings: for solubility: thermodynamic from solid
Description: First, the compound was dissolved in 2 mL of deionized water (DI water), and then the UV-Vis spectrum of the solution was measured. 1 mL of the solution was taken out, 1 mL of deionized water was added to reduce the concentration by half, and then the UV-Vis spectrum was measured. This process was repeated several times. A calibration curve was drawn using λ=361 nm (π-π* transition) from the UV-Vis spectrum. At this time, a UV-Vis spectrum of deionized water was used for baseline measurement. […] The solution was filtered, and then the total volume of the solution was recorded. […] of the filtrate was taken, and then deionized water was added to bring the volume to 2 mL. Thereafter, 1 mL of the solution was taken and fresh deionized water was added to dilute the solution to a volume of 2 mL. The UV-Vis spectrum was recorded until the absorbance at λ=361 nm was smaller than 1 a.u. The linear equation of the calibration curve was used to calculate the concentration of the solution, and the molarity equation was used to estimate the maximum solubility of the compound.

solubility in water (deionized water, room temperature, result in words): substantially insoluble in water
SMILES: CN1C(=O)c2ccc3c4c(ccc(c24)C1=O)C(=O)N(C)C3=O [Comparative Example 1, 2,7-dimethylbenzo [lmn] [3,8] phenanthroline-1,3,6,8 (2H,7H) -tetraone]

solubility (saline or isotonic, 1 M KCl solution as printed, read-out: solubility in the 1 M KCl solution): ~25 mM
SMILES: O=C(O)CN1C(=O)c2ccc3c4c(ccc(c24)C1=O)C(=O)N(CC(=O)O)C3=O [Comparative Example 2, 2,2′-(1,3,6,8-tetraoxo-1,3,6,8-tetrahydrobenzo [lmn] [3,8]phenanthroline-2,7-diyl)diacetate Potassium]

solubility (1.5 M KCl aqueous solution, saline or isotonic, KCl aqueous solution (method: 1.5 M KCl), room temperature, read-out: solubility in the KCl solution): ~1200 mM | solubility (deionized water, room temperature, read-out: solubility in water): ~1500 mM
SMILES: C[N+](C)(C)CCC[N+](C)(C)CCCN1C(=O)c2ccc3c4c(ccc(c24)C1=O)C(=O)N(CCC[N+](C)(C)CCC[N+](C)(C)C)C3=O [Example 1]
